Data: ChEMBL document CHEMBL5303304, “EUbOPEN Chemogenomics Library - IncuCyte” (2023)

Legend:
Assay type in all cases: toxicity, cell-based
U2OS = assay: Incucyte cell viability with U2OS; settings: human, 10 µM, compound concentration 10 uM
Fibroblast = assay: Incucyte cell viability with human fibroblast; settings: 10 µM, compound concentration 10 uM
HEK-293T = assay: Incucyte cell viability with HEK293T; settings: human, 10 µM, compound concentration 10 uM
Also: unitless GR value; below 1 slowed growth and below 0 cell loss.

SMILES | Growth Rate (U2OS; 0 h, replicate number 1) | Growth Rate (U2OS; 6 h, replicate number 2) | Growth Rate (U2OS; 12 h, replicate number 2) | Growth Rate (U2OS; 18 h, replicate number 2) | Growth Rate (U2OS; 24 h, replicate number 2) | Growth Rate (Fibroblast; 12 h, replicate number 2) | Growth Rate (Fibroblast; 24 h, replicate number 1) | Growth Rate (HEK-293T; 0 h, replicate number 2) | Growth Rate (HEK-293T; 12 h, replicate number 2) | Growth Rate (HEK-293T; 18 h, replicate number 1) | Growth Rate (HEK-293T; 18 h, replicate number 2) | Growth Rate (HEK-293T; 24 h, replicate number 1) | Growth Rate (HEK-293T; 24 h, replicate number 2) | Growth Rate (U2OS; 12 h, replicate number 1) | Growth Rate (Fibroblast; 6 h, replicate number 2) | Growth Rate (Fibroblast; 18 h, replicate number 1) | Growth Rate (Fibroblast; 18 h, replicate number 2) | Growth Rate (Fibroblast; 24 h, replicate number 2) | Growth Rate (HEK-293T; 6 h, replicate number 1) | Growth Rate (HEK-293T; 12 h, replicate number 1) | also measured
COc1ccc(CC[C@@H](OC(=O)[C@@H]2CCCCN2C(=O)[C@H](c2cc(OC)c(OC)c(OC)c2)C2CCCCC2)c2cccc(OCCN3CCOCC3)c2)cc1OC | -1 | 0.91 | 0.8 | 0.78 | 0.73 | 0.99 | 0.97 | -0.44 | 0.38 | 0.94 | 0.26 | 0.27 | 0.24 | – | – | – | – | – | – | – | Growth Rate (U2OS; 0 h, replicate number 2): -0.99; Growth Rate (Fibroblast; 0 h, replicate number 1): -1
COc1cc(-c2cc3ncccc3c(OC[C@H]3CNC(=O)C3)n2)cc(OC)c1OC1CCOCC1.O=C(O)C(F)(F)F | -0.63 | 0.88 | 0.93 | 0.85 | 0.75 | 0.78 | – | 0.5 | 0.16 | 0.25 | 0.34 | 0.33 | 0.49 | 0.72 | 0.67 | 1 | 0.92 | 0.94 | 0.2 | 0.17 | Growth Rate (U2OS; 18 h, replicate number 1): 0.76; Growth Rate (U2OS; 24 h, replicate number 1): 0.68; Growth Rate (Fibroblast; 0 h, replicate number 1): 0.4; Growth Rate (Fibroblast; 6 h, replicate number 1): 0.72; Growth Rate (HEK-293T; 6 h, replicate number 2): -0.14
Clc1cccc(Nc2nccc(NCCCN3CCOCC3)n2)c1 | -0.75 | 0.73 | 0.73 | 0.82 | 0.7 | 0.39 | 0.48 | 0.13 | – | 0.37 | 0.82 | 0.38 | 0.69 | – | 0.14 | 0.6 | 0.57 | 0.53 | 0.27 | 0.34 | Growth Rate (Fibroblast; 0 h, replicate number 1): -0.99; Growth Rate (Fibroblast; 0 h, replicate number 2): -0.07; Growth Rate (Fibroblast; 6 h, replicate number 1): 0.51; Growth Rate (Fibroblast; 12 h, replicate number 1): 0.59
COc1ccc(C(F)(F)F)cc1NC(=O)Nc1ccc(Oc2cc(C)nc(N)n2)c2ccccc12 | -1 | – | – | – | – | 0.87 | – | -0.09 | 0.92 | 0.55 | 0.87 | 0.6 | 0.81 | – | 0.32 | – | 0.85 | 0.89 | 0.58 | 0.67 | Growth Rate (Fibroblast; 0 h, replicate number 1): -1; Growth Rate (Fibroblast; 0 h, replicate number 2): -0.09
CN(C)[C@H]1CC[C@H](Nc2ncc3ncnc(Nc4ccc(F)c(Cl)c4)c3n2)CC1 | -1 | 0.45 | 0.5 | 0.48 | 0.47 | -0.1 | 0.14 | -1 | – | 0.12 | – | 0.23 | – | 0.48 | 0.19 | 0.14 | -0.19 | -0.13 | -0.21 | -0.11 | Growth Rate (U2OS; 0 h, replicate number 2): 0.58; Growth Rate (U2OS; 18 h, replicate number 1): 0.38; Growth Rate (U2OS; 24 h, replicate number 1): 0.45; Growth Rate (Fibroblast; 0 h, replicate number 2): -1; Growth Rate (Fibroblast; 6 h, replicate number 1): 0.74; Growth Rate (Fibroblast; 12 h, replicate number 1): 0.23
COc1cc(C(=O)NC2CCN(C)CC2)ccc1Nc1ncc(C(F)(F)F)c(NCc2ccc(C)cc2N(C)S(C)(=O)=O)n1.O=CO.O=CO | -0.98 | -0.57 | -0.43 | -0.46 | -0.53 | -0.43 | -0.58 | -1 | -0.48 | -0.54 | -0.33 | -0.45 | -0.34 | 0.11 | -0.42 | -0.52 | -0.55 | -0.54 | -0.77 | -0.63 | Growth Rate (U2OS; 0 h, replicate number 2): -0.24; Growth Rate (U2OS; 6 h, replicate number 1): 0.97; Growth Rate (U2OS; 18 h, replicate number 1): -0.12; Growth Rate (U2OS; 24 h, replicate number 1): -0.27; Growth Rate (Fibroblast; 6 h, replicate number 1): -0.43; Growth Rate (Fibroblast; 12 h, replicate number 1): -0.37; Growth Rate (HEK-293T; 6 h, replicate number 2): -0.51
CCc1ncnc(N2CCN(C(C)=O)CC2)c1C#Cc1ccc(N)nc1.Cl.Cl | -0.47 | – | 0.99 | 0.8 | 0.68 | 0.76 | 0.61 | -0.97 | -0.05 | 0.05 | 0.01 | 0.01 | 0.02 | 0.73 | 0.3 | 0.66 | 0.52 | 0.53 | -0.05 | 0.06 | Growth Rate (U2OS; 6 h, replicate number 1): 0.86; Growth Rate (U2OS; 18 h, replicate number 1): 0.73; Growth Rate (U2OS; 24 h, replicate number 1): 0.7; Growth Rate (Fibroblast; 12 h, replicate number 1): 0.68; Growth Rate (HEK-293T; 6 h, replicate number 2): -0.04
Cn1c(Nc2c(Cl)cccc2Cl)nc2ccc3nc[nH]c(=O)c3c21 | -0.24 | 0.19 | 0.74 | 0.83 | 0.85 | 0.35 | 0.51 | -1 | – | – | – | – | – | 0.97 | 0.1 | 0.71 | 0.42 | 0.33 | 0.08 | – | Growth Rate (U2OS; 0 h, replicate number 2): 0.87; Growth Rate (U2OS; 6 h, replicate number 1): 0.95; Growth Rate (U2OS; 18 h, replicate number 1): 0.86; Growth Rate (U2OS; 24 h, replicate number 1): 0.98; Growth Rate (Fibroblast; 6 h, replicate number 1): 0.64; Growth Rate (Fibroblast; 12 h, replicate number 1): 0.65; Growth Rate (HEK-293T; 6 h, replicate number 2): 0.03
CCNc1ccc(-c2nn(-c3ccccc3C)c3c2C(C)Cc2nc(NC(=O)OC)sc2-3)cn1.O=C(O)C(F)(F)F (configuration not stated) | -0.28 | 0.13 | 0.24 | 0.25 | 0.07 | -0.37 | -0.11 | -0.93 | -0.12 | -0.23 | 0.03 | -0.1 | -0.01 | 0.39 | -0.7 | -0.28 | -0.19 | -0.06 | -0.42 | -0.41 | Growth Rate (U2OS; 6 h, replicate number 1): 0.5; Growth Rate (U2OS; 18 h, replicate number 1): 0.27; Growth Rate (U2OS; 24 h, replicate number 1): -0.06; Growth Rate (Fibroblast; 6 h, replicate number 1): -0.81; Growth Rate (Fibroblast; 12 h, replicate number 1): -0.55; Growth Rate (HEK-293T; 6 h, replicate number 2): 0.14
